Source: patent publication US10407409B2, “6-(5-hydroxy-1H-pyrazol-1-yl)nicotinamide inhibitors of PHD” (Takeda Pharmaceutical Company Limited, priority 2013, dated 2019)

Assays:
[1] = target: PHD2 enzyme (residues 181-417) (Homo sapiens (Human), UniProt Q9GZT9); test: Inhibition of PHD enzyme (LC/MS peptide hydroxylation assay); format: biochemical; conditions: PHD2 (residues 181-417) 5 nM, 60 min pre-incubation; -log(IC50), IC50 molar
Outline: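 PHD2 (5 nM final) preincubated with inhibitor 60 min at RT in 50 mM HEPES, 50 mM KCl, 0.5 mM TCEP, 2 uM FeCl2, 0.1 mg/ml BSA, pH 7.3. Reaction started with biotin-peptide (1 uM), 2-oxoglutarate (2 uM), ascorbate (1 mM), quenched at 60 min; hydroxylated product by LC/MS, reported as pIC50.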

[2] = test system: HIF1a protein in H9c2 rat cardiomyocytes; test: Cell-based HIF-alpha stabilization assay (inhibition of PHD in cells); conditions: Rattus norvegicus, H9c2, 24 h, 24 hrs compound incubation, HIF1a protein by ELISA, read-out: Inhibition of PHD in cells (pEC50) (converted)
Outline: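 Rat H9c2 cardiomyocytes, cultured 24 h, were treated 24 h with an 11-point serial dilution of compound. HIF1a in whole-cell lysates was quantified by ELISA as % of the maximal desferrioxamine response. EC50 came from curve fitting; EC50pos is the concentration reaching 50% of the desferrioxamine maximum.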

Sequence of PHD2 enzyme (residues 181-417) (Q9GZT9 181-417): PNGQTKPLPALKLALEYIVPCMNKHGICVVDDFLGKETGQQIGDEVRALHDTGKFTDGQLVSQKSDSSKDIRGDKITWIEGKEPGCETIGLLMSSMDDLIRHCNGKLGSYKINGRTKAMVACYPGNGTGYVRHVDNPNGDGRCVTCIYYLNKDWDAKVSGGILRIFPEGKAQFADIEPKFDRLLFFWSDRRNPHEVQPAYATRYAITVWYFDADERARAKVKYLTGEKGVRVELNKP

Structure (SMILES) | PHD Inhibition (pIC50) [1] | EC50 [2] [nM]
Cc1cc(C#N)ccc1-c1cnn(-c2ccc(C(=O)NCCCN(C)C)cn2)c1O [Example 95, 6-(4-(4-cyano-2-methylphenyl)-5-hydroxy-1H-pyrazol-1-yl)-N-(3-(dimethylamino)propyl)nicotinamide] | 7.9 | 83.2
Cc1cc(C#N)ccc1-c1cnn(-c2ccc(C(=O)NCC3CCN(C)C3)cn2)c1O (stereo not shown) [Example 96, 6-(4-(4-cyano-2-methylphenyl)-5-hydroxy-1H-pyrazol-1-yl)-N-((1-methylpyrrolidin-3-yl)methyl)nicotinamide] | 8 | 56.2
Cc1cc(C#N)ccc1-c1cnn(-c2ccc(C(=O)NCCCN3CCCCC3C)cn2)c1O (stereo not shown) [Example 97, 6-(4-(4-cyano-2-methylphenyl)-5-hydroxy-1H-pyrazol-1-yl)-N-(3-(2-methylpiperidin-1-yl)propyl)nicotinamide] | 8 | 56.2
CCN1CCC(NC(=O)c2ccc(-n3ncc(-c4ccc(C#N)cc4C)c3O)nc2)CC1 [Example 98, 6-(4-(4-cyano-2-methylphenyl)-5-hydroxy-1H-pyrazol-1-yl)-N-(1-ethylpiperidin-4-yl)nicotinamide] | 7.9 | 120
Cc1cc(C#N)ccc1-c1cnn(-c2ccc(C(=O)NCCCN3CCCCC3)cn2)c1O [Example 99, 6-(4-(4-cyano-2-methylphenyl)-5-hydroxy-1H-pyrazol-1-yl)-N-(3-(piperidin-1-yl)propyl)nicotinamide] | 7.9 | 53.7
Cc1cc(C#N)ccc1-c1cnn(-c2ccc(C(=O)NC3CCN(C)CC3)cn2)c1O [Example 100, 6-(4-(4-cyano-2-methylphenyl)-5-hydroxy-1H-pyrazol-1-yl)-N-(1-methylpiperidin-4-yl)nicotinamide] | 8.1 | 75.9
Cc1cc(C#N)ccc1-c1cnn(-c2ccc(C(=O)NCC3CN(C)CCO3)cn2)c1O (stereo not shown) [Example 101, 6-(4-(4-cyano-2-methylphenyl)-5-hydroxy-1H-pyrazol-1-yl)-N-((4-methylmorpholin-2-yl)methyl)nicotinamide] | 8.1 | 158
Cc1cc(C#N)ccc1-c1cnn(-c2ccc(C(=O)NCCC3CCCN3C)cn2)c1O (stereo not shown) [Example 102, 6-(4-(4-cyano-2-methylphenyl)-5-hydroxy-1H-pyrazol-1-yl)-N-(2-(1-methylpyrrolidin-2-yl)ethyl)nicotinamide] | 7.9 | 58.9
COC[C@H]1CCC[C@H]1NC(=O)c1ccc(-n2ncc(-c3ccc(C#N)cc3C)c2O)nc1 [Example 103, 6-(4-(4-cyano-2-methylphenyl)-5-hydroxy-1H-pyrazol-1-yl)-N-((1R,2S)-2-(methoxymethyl)cyclopentyl)nicotinamide] | 8.1 | 178
Cc1cc(C#N)ccc1-c1cnn(-c2ccc(C(=O)NCCCN3CCOCC3)cn2)c1O [Example 104, 6-(4-(4-cyano-2-methylphenyl)-5-hydroxy-1H-pyrazol-1-yl)-N-(3-morpholinopropyl)nicotinamide] | 8.2 | 95.5
Cc1cc(C#N)ccc1-c1cnn(-c2ccc(C(=O)NCCCN3CCCC3)cn2)c1O [Example 105, 6-(4-(4-cyano-2-methylphenyl)-5-hydroxy-1H-pyrazol-1-yl)-N-(3-(pyrrolidin-1-yl)propyl)nicotinamide] | 8 | 61.7
Cc1cc(C#N)ccc1-c1cnn(-c2ccc(C(=O)NCCCn3ccnc3)cn2)c1O [Example 106, N-(3-(1H-imidazol-1-yl)propyl)-6-(4-(4-cyano-2-methylphenyl)-5-hydroxy-1H-pyrazol-1-yl)nicotinamide] | 8 | 355
CNC(=O)c1ccc(-n2ncc(-c3ccc(C#N)cc3C)c2O)nc1 [Example 107, 6-(4-(4-cyano-2-methylphenyl)-5-hydroxy-1H-pyrazol-1-yl)-N-methylnicotinamide] | 8.4 | 129
CCNC(=O)c1ccc(-n2ncc(-c3ccc(C#N)cc3C)c2O)nc1 [Example 108] | 8.3 | 110
CN(C)CC(C)(C)NC(=O)c1ccc(-n2ncc(-c3ccc(C#N)cc3)c2O)nc1 [Example 109, 6-(4-(4-cyanophenyl)-5-hydroxy-1H-pyrazol-1-yl)-N-(1-(dimethylamino)-2-methylpropan-2-yl)nicotinamide] | 7.7 | 1200
COC[C@H]1CCC[C@H]1NC(=O)c1ccc(-n2ncc(-c3ccc(C#N)cc3)c2O)nc1 [Example 110, 6-(4-(4-cyanophenyl)-5-hydroxy-1H-pyrazol-1-yl)-N-((1R,2S)-2-(methoxymethyl)cyclopentyl)nicotinamide] | 8.1 | 1230

Structure (SMILES) | PHD Inhibition (pIC50) [1] | EC50 [2] [nM]
CN1CCOC(CNC(=O)c2ccc(-n3ncc(-c4ccc(C#N)cc4)c3O)nc2)C1 (stereo not shown) [Example 111, 6-(4-(4-cyanophenyl)-5-hydroxy-1H-pyrazol-1-yl)-N-((4-methylmorpholin-2-yl)methyl)nicotinamide] | 7.8 | 2140
CCOCCNC(=O)c1ccc(-n2ncc(-c3ccc(C#N)cc3)c2O)nc1 [Example 112, 6-(4-(4-cyanophenyl)-5-hydroxy-1H-pyrazol-1-yl)-N-(2-ethoxyethyl)nicotinamide] | 7.32 | 1380
CC(NC(=O)c1ccc(-n2ncc(-c3ccc(C#N)cc3)c2O)nc1)C1CCCO1 (stereo not shown) [Example 113, 6-(4-(4-cyanophenyl)-5-hydroxy-1H-pyrazol-1-yl)-N-(1-(tetrahydrofuran-2-yl)ethyl)nicotinamide] | 7.22 | 1380
COCCC(C)NC(=O)c1ccc(-n2ncc(-c3ccnc(OC)c3)c2O)nc1 (stereo not shown) [Example 114, 6-(5-hydroxy-4-(2-methoxypyridin-4-yl)-1H-pyrazol-1-yl)-N-(4-methoxybutan-2-yl)nicotinamide] | 6.55 | 257
CC(C)N1CCC(NC(=O)c2ccc(-n3ncc(-c4ccc(C#N)cc4)c3O)nc2)CC1 [Example 115, 6-(4-(4-cyanophenyl)-5-hydroxy-1H-pyrazol-1-yl)-N-(1-isopropylpiperidin-4-yl)nicotinamide] | 6.91 | 1820
N#Cc1ccc(-c2cnn(-c3ccc(C(=O)NCCCc4nccs4)cn3)c2O)cc1 [Example 116, 6-(4-(4-cyanophenyl)-5-hydroxy-1H-pyrazol-1-yl)-N-(3-(thiazol-2-yl)propyl)nicotinamide] | 7.42 | 741
N#Cc1ccc(-c2cnn(-c3ccc(C(=O)NCCCn4cccn4)cn3)c2O)cc1 [Example 117, N-(3-(1H-pyrazol-1-yl)propyl)-6-(4-(4-cyanophenyl)-5-hydroxy-1H-pyrazol-1-yl)nicotinamide] | 7.44 | 646
N#Cc1ccc(-c2cnn(-c3ccc(C(=O)NCCCOCC4CC4)cn3)c2O)cc1 [Example 118, 6-(4-(4-cyanophenyl)-5-hydroxy-1H-pyrazol-1-yl)-N-(3-(cyclopropylmethoxy)propyl)nicotinamide] | 7.36 | 316
CO[C@H]1CC[C@@H](NC(=O)c2ccc(-n3ncc(-c4ccc(C#N)cc4C)c3O)nc2)CC1 [Example 119, 6-(4-(4-cyano-2-methylphenyl)-5-hydroxy-1H-pyrazol-1-yl)-N-((1 s,4s)-4-methoxycyclohexyl)nicotinamide] | 7.11 | 126
Cc1cc(C#N)ccc1-c1cnn(-c2ccc(C(=O)N[C@H]3CCOC3)cn2)c1O [Example 120, (S)-6-(4-(4-cyano-2-methylphenyl)-5-hydroxy-1H-pyrazol-1-yl)-N-(tetrahydrofuran-3-yl)nicotinamide] | 7.2 | 102
COCCCNC(=O)c1ccc(-n2ncc(-c3ccc(C#N)cc3C)c2O)nc1 [Example 121, 6-(4-(4-cyano-2-methylphenyl)-5-hydroxy-1H-pyrazol-1-yl)-N-(3-methoxypropyl)nicotinamide] | 7.17 | 191
CC[C@H](C)NC(=O)c1ccc(-n2ncc(-c3ccc(C#N)cc3C)c2O)nc1 [Example 122, (S)—N-(sec-butyl)-6-(4-(4-cyano-2-methylphenyl)-5-hydroxy-1H-pyrazol-1-yl)nicotinamide] | 7.06 | 95.5
N#Cc1ccc(-c2cnn(-c3ccc(C(=O)N4CCOCC4)cn3)c2O)cc1 [Example 123, 4-(5-hydroxy-1-(5-(morpholine-4-carbonyl)pyridin-2-yl)-1H-pyrazol-4-yl)benzonitrile] | 7.16 | 4790
Cc1cc(C#N)ccc1-c1cnn(-c2ccc(C(=O)NCCCO)cn2)c1O [Example 125, 6-(4-(4-cyano-2-methylphenyl)-5-hydroxy-1H-pyrazol-1-yl)-N-(3-hydroxypropyl)nicotinamide] | 7.19 | 372
CCOCCNC(=O)c1ccc(-n2ncc(-c3ccc(C#N)cc3C)c2O)nc1 [Example 126, 6-(4-(4-cyano-2-methylphenyl)-5-hydroxy-1H-pyrazol-1-yl)-N-(2-ethoxyethyl)nicotinamide] | 7.24 | 380
Cc1cc(C#N)ccc1-c1cnn(-c2ccc(C(=O)NC3CC3)cn2)c1O [Example 127, 6-(4-(4-cyano-2-methylphenyl)-5-hydroxy-1H-pyrazol-1-yl)-N-cyclopropylnicotinamide] | 7.18 | 93.3
